What was measured:
Assay type in all cases: functional
Aspergillus niger = assay: Antifungal activity against Aspergillus niger ATCC 9029 after 7 days by agar plate method
Proteus vulgaris = assay: Antibacterial activity against Proteus vulgaris ATCC 29905 after 24 hr by agar well diffusion method
Escherichia coli = assay: Antibacterial activity against Escherichia coli ATCC 25922 after 24 hr by agar well diffusion method
Priestia megaterium = assay: Antibacterial activity against Bacillus megaterium ATCC 14518 after 24 hr by agar well diffusion method
Staphylococcus aureus = assay: Antibacterial activity against Staphylococcus aureus ATCC 25923 after 24 hr by agar well diffusion method
[1] = tested on: Mycobacterium tuberculosis; assay: Growth inhibition of Mycobacterium tuberculosis H37Rv at 6.25 ug/ml by radiometric anlaysis; conditions: read-out: GI
[2] = tested on: Mycobacterium tuberculosis; assay: Growth inhibition of Mycobacterium tuberculosis H37Rv at 0.25 ug/ml by radiometric anlaysis; conditions: read-out: GI

Row | SMILES | diameter of the inhibition zone (DIZ) (Aspergillus niger) [mm] | inhibition zone (IZ) (Proteus vulgaris) [mm] | inhibition zone (IZ) (Escherichia coli) [mm] | inhibition zone (IZ) (Priestia megaterium) [mm] | inhibition zone (IZ) (Staphylococcus aureus) [mm] | inhibition of growth at 6.25 µg/mL [1] [%] | inhibition of growth at 0.25 µg/mL [2] [%]
1 | O=C(/C=C/c1ccc(-c2ccc(Cl)c(Cl)c2)o1)c1cccc([N+](=O)[O-])c1 | 17 | 17 | 11 | 19 | 16 |  | 
2 | CC(=O)N1N=C(c2ccc(Br)cc2)CC1c1ccc(-c2ccc(Cl)c(Cl)c2)o1 (configuration not stated) | 18 | 19 | 11 | 20 | 12 | 6 | 
3 | CC(=O)N1N=C(c2ccc(N)cc2)CC1c1ccc(-c2ccc(Cl)c(Cl)c2)o1 (configuration not stated) | 19 | 12 | 17 | 17 | 17 | 74 | 
4 | Nc1cccc(C(=O)/C=C/c2ccc(-c3ccc(Cl)c(Cl)c3)o2)c1 | 17 | 17 | 16 | 14 | 19 |  | 
5 | CCn1cc(C(=O)O)c(=O)c2cc(F)c(N3CCNCC3)cc21 [NORFLOXACIN] | 0 | 21 | 20 | 23 | 19 |  | 
6 | Nc1ccc(C(=O)/C=C/c2ccc(-c3ccc(Cl)c(Cl)c3)o2)cc1 | 18 | 12 | 13 | 17 | 12 |  | 
7 | CO[C@H]1/C=C/O[C@@]2(C)Oc3c(C)c(O)c4c(O)c(c(/C=N/N5CCN(C)CC5)c(O)c4c3C2=O)NC(=O)/C(C)=C\C=C\[C@H](C)[C@H](O)[C@@H](C)[C@@H](O)[C@@H](C)[C@H](OC(C)=O)[C@@H]1C [RIFAMPIN] |  |  |  |  |  |  | 98
8 | COc1ccc(C2=NN(C(C)=O)C(c3ccc(-c4ccc(Cl)c(Cl)c4)o3)C2)cc1 (configuration not stated) | 19 | 14 | 20 | 12 | 19 | 0 | 
9 | CC(=O)N1N=C(c2ccc([N+](=O)[O-])cc2)CC1c1ccc(-c2ccc(Cl)c(Cl)c2)o1 (configuration not stated) | 13 | 14 | 14 | 16 | 12 | 19 | 
10 | CC(=O)N1N=C(c2cccc(N)c2)CC1c1ccc(-c2ccc(Cl)c(Cl)c2)o1 (configuration not stated) | 17 | 15 | 15 | 14 | 13 | 4 | 
11 | CC1(C)S[C@@H]2[C@H](NC(=O)[C@H](N)c3ccccc3)C(=O)N2[C@H]1C(=O)O [AMPICILLIN] | 0 | 17 | 19 | 22 | 20 |  | 
12 | CC(=O)N1N=C(c2ccc(F)cc2)CC1c1ccc(-c2ccc(Cl)c(Cl)c2)o1 (configuration not stated) | 17 | 13 | 12 | 13 | 13 | 1 | 
13 | CC1(C)S[C@@H]2[C@H](NC(=O)[C@H](N)c3ccc(O)cc3)C(=O)N2[C@H]1C(=O)O [AMOXICILLIN] | 0 | 20 | 18 | 24 | 22 |  | 
14 | O=C(/C=C/c1ccc(-c2ccc(Cl)c(Cl)c2)o1)c1ccc(Br)cc1 | 21 | 16 | 20 | 21 | 19 |  | 
15 | CC(=O)N1N=C(c2cccc([N+](=O)[O-])c2)CC1c1ccc(-c2ccc(Cl)c(Cl)c2)o1 (configuration not stated) | 17 | 13 | 17 | 13 | 14 | 6 | 
16 | CC(=O)N1N=C(c2ccc(C)cc2)CC1c1ccc(-c2ccc(Cl)c(Cl)c2)o1 (configuration not stated) | 20 | 19 | 12 | 19 | 21 | 0 | 
17 | O=C(/C=C/c1ccc(-c2ccc(Cl)c(Cl)c2)o1)c1ccccc1 | 19 | 15 | 19 | 20 | 14 |  | 
18 | O=C(/C=C/c1ccc(-c2ccc(Cl)c(Cl)c2)o1)c1ccccc1O | 18 | 11 | 14 | 12 | 16 |  | 
19 | CC(=O)N1N=C(c2ccc(Cl)cc2)CC1c1ccc(-c2ccc(Cl)c(Cl)c2)o1 (configuration not stated) | 21 | 18 | 19 | 21 | 16 | 17 | 
20 | CC(=O)N1N=C(c2ccccc2)CC1c1ccc(-c2ccc(Cl)c(Cl)c2)o1 (configuration not stated) | 13 | 17 | 18 | 17 | 20 | 0 | 
21 | O=C(/C=C/c1ccc(-c2ccc(Cl)c(Cl)c2)o1)c1ccc(Cl)cc1 | 14 | 15 | 14 | 15 | 20 |  | 
22 | CC(=O)N1N=C(c2ccccc2O)CC1c1ccc(-c2ccc(Cl)c(Cl)c2)o1 (configuration not stated) | 15 | 11 | 13 | 18 | 16 | 11 | 
23 | O=C(/C=C/c1ccc(-c2ccc(Cl)c(Cl)c2)o1)c1ccc([N+](=O)[O-])cc1 | 19 | 15 | 12 | 11 | 17 |  | 
24 | O=C(/C=C/c1ccc(-c2ccc(Cl)c(Cl)c2)o1)c1ccc(F)cc1 | 14 | 14 | 16 | 17 | 12 |  | 
25 | CC1(C)S[C@@H]2[C@H](NC(=O)Cc3ccccc3)C(=O)N2[C@H]1C(=O)O [PENICILLIN G] | 0 | 23 | 22 | 25 | 24 |  | 
26 | COc1ccc(C(=O)/C=C/c2ccc(-c3ccc(Cl)c(Cl)c3)o2)cc1 | 19 | 19 | 12 | 13 | 20 |  | 
27 | COC1=CC(=O)C[C@@H](C)[C@]12Oc1c(Cl)c(OC)cc(OC)c1C2=O [GRISEOFULVIN] | 26 | 0 | 0 | 0 | 0 |  | 
28 | Cc1ccc(C(=O)/C=C/c2ccc(-c3ccc(Cl)c(Cl)c3)o2)cc1 | 13 | 14 | 19 | 22 | 13 |  | 

Reference: ChEMBL document CHEMBL3046874, “Synthesis and biological evaluation of chalcones and acetyl pyrazoline derivatives comprising furan nucleus as an antitubercular agents” (2012)
